This passage reports IC50 results from paper PMC5218821 (Journal of ocular biology, 2016).

Each structure is given as a SMILES string.

This assay deals with T1, soluble epoxide hydrolase (sEH) (Oryctolagus cuniculus, UniProt A0A5F9CRP6).
T1 construct: gene ADAM2
T1 sequence (A0A5F9CRP6 1-555): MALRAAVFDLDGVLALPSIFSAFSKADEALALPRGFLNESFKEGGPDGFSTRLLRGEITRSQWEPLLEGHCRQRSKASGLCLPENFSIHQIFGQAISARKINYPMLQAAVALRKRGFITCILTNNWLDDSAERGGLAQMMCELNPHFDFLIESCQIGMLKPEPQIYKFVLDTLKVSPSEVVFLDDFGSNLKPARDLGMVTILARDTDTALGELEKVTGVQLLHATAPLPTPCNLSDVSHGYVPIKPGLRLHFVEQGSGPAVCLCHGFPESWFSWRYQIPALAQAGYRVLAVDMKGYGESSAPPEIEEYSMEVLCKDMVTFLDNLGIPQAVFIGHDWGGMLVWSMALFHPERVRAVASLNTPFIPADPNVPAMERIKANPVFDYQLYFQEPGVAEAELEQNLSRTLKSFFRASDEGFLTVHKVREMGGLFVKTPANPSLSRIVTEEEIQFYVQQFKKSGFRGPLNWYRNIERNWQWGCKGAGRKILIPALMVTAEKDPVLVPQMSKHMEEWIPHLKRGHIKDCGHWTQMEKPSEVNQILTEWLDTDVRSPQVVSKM
Nature of the assay: biochemical.

Usually IC50 stands for the concentration that inhibits the measured activity by half. A higher IC50 goes with weaker potency. The molecule `CS(=O)(=O)N1CCC(NC(=O)Nc2ccc(OC(F)(F)F)cc2)CC1` [UC1709, TUPS] came in with an IC50 of 88 nM.
